Measured values from patent US8637664B2, “Alkyl 4- [4- (5-oxo-2,3,5, 11a-tetrahydo-5H-pyrrolo [2, 1-c] [1,4] benzodiazepine-8-yloxy)-butyrylamino]-1H-pyrrole-2-carboxylate derivatives and related compounds for the treatment of a proliferative disease” (Spirogen SARL, priority 2005, dated 2014).

How the values were obtained:
[1] = tested on: calf thymus DNA (CT-DNA); assay: DNA thermal denaturation (melting) studies; assay type: binding; conditions: CT-DNA 100 μM DNAp, compound 20 μM, 37 °C; for Induced ΔTm after incubation 0 hours: pH 7.00, 0 hours; for Induced ΔTm after incubation 4 hours: pH 7.00, 4 hours; for Induced ΔTm after incubation 18 hours: pH 7.00, 18 hours; for Induced ΔTm after incubation 72 hours: pH 7.00, 72 hours
Experimental: The PBD agents were subjected to DNA thermal melting (denaturation) studies (Gregson, S. J., et al., Journal of Medicinal Chemistry, 44(5), 737-748 (2001); Jones, G. B., et al., Anti-Cancer Drug Design, 5(3), 249-264 (1990); McConnaughie, A. W. and; Jenkins, T. C. Journal of Medicinal Chemistry, 38(18), 3488-3501 (1995)) using calf thymus DNA (CT-DNA, type-1, highly polymerized sodium salt; 42% G+C [Sigma]) at a fixed 100 μM (DNAp=50 μM bp) concentration, determined using an extinction coefficient of 6600 (M phosphate)^−1 cm^−1 at 260 nm (Manzini, G., et al., Nucleic Acids Research, 11(24), 8861-8876 (1983)). Solutions were prepared in pH 7.00±0.01 aqueous buffer containing 10 mM NaH2PO4/Na2HPO4 and 1 mM EDTA. Working solutions containing CT-DNA and the test compound (20 μM) were incubated at 37.0±0.1° C. for 0 to 18 hours using an external water bath. Samples were monitored at 260 nm using a Varian-Cary 400 Bio spectrophotometer fitted with a Peltier heating accessory. Heating was applied at a rate of 1° C./min in the 45 to 98° C. temperature range, with optical and temperature data sampling at 200 ms intervals. A separate experiment was carried out using buffer alone, and this baseline was subtracted from each DNA melting curve before data treatment. Optical data were imported into the Origin 5 program (MicroCal Inc., Northampton, Mass.) for analysis. DNA helix→coil transition temperatures (Tm) were determined at the midpoint of the normalized melting profiles using a published analytical procedure (Jones, G. B., et al., Anti-Cancer Drug Design, 5(3), 249-264 (1990)). Results are given in table 1 as the mean±standard deviation from at least three determinations. Ligand-induced alterations in DNA melting behaviour (ΔTm) are given by ΔTm=Tm(DNA+ligand)−Tm(DNA), where the Tm value determined for free CT-DNA is 67.82±0.06° C. (averaged from >90 runs). All PBD compounds were dissolved in HPLC-grade MeOH to give working solutions containing ≦0.6% v/v MeOH; Tm results were corrected for the effects of MeOH co-solvent by using a linear correction term.
The above method was also carried out on the compounds of example 2, with all compounds being incubated for up to 72 hours.

[2] = tested on: NF-Y binding at ICB2 of Topoisomerase IIα promoter; assay: NF-Y gel shift assay (EMSA) at ICB2

SMILES	Induced ΔTm after incubation 0 hours [1]	Induced ΔTm after incubation 4 hours [1]	Induced ΔTm after incubation 18 hours [1]	Induced ΔTm after incubation 72 hours [1]	Lowest concentration at which NF-Y binding inhibition was observed [2]
COC(=O)c1cc(NC(=O)c2nc(NC(=O)c3nc(NC(=O)CCCOc4cc5c(cc4OC)C(=O)N4CCC[C@H]4C=N5)cn3C)cn2C)cn1C [Compound 75]	14.3 °C	15.0 °C	15.4 °C	15.6 °C	
CCOC(=O)c1nc(NC(=O)c2nc(NC(=O)c3nc(NC(=O)CCCOc4cc5c(cc4OC)C(=O)N4CCC[C@H]4C=N5)cn3C)cn2C)cn1C [Compound 77]	11.0 °C	11.7 °C	12.0 °C	12.1 °C	50 µM
CCOC(=O)c1nc(NC(=O)c2cc(NC(=O)c3cc(NC(=O)CCCOc4cc5c(cc4OC)C(=O)N4CCC[C@H]4C=N5)cn3C)cn2C)cn1C [Compound 79]	13.9 °C	14.8 °C	15.2 °C	15.5 °C	
CCOC(=O)c1nc(NC(=O)c2cc(NC(=O)c3nc(NC(=O)CCCOc4cc5c(cc4OC)C(=O)N4CCC[C@H]4C=N5)cn3C)cn2C)cn1C [Compound 81]	14.9 °C	15.7 °C	16.2 °C	16.4 °C	
CCOC(=O)c1csc(NC(=O)c2csc(NC(=O)c3csc(NC(=O)CCCOc4cc5c(cc4OC)C(=O)N4CCC[C@H]4C=N5)n3)n2)n1 [Compound 83]	10.0 °C	10.7 °C	10.9 °C	11.0 °C	
CCOC(=O)c1csc(NC(=O)c2csc(NC(=O)c3cc(NC(=O)CCCOc4cc5c(cc4OC)C(=O)N4CCC[C@H]4C=N5)cn3C)n2)n1 [Compound 85]	7.5 °C	8.0 °C	8.4 °C	8.4 °C	
CCOC(=O)c1csc(NC(=O)c2cc(NC(=O)c3csc(NC(=O)CCCOc4cc5c(cc4OC)C(=O)N4CCC[C@H]4C=N5)n3)cn2C)n1 [Compound 87]	6.4 °C	6.8 °C	7.1 °C	7.3 °C	
CCOC(=O)c1csc(NC(=O)c2cc(NC(=O)c3cc(NC(=O)CCCOc4cc5c(cc4OC)C(=O)N4CCC[C@H]4C=N5)cn3C)cn2C)n1 [Compound 89]	16.8 °C	17.7 °C	18.6 °C	18.8 °C	
